Measured values published in US6727237B2, “Inhibitors of bacterial NAD synthetase” (priority 1998, dated 2004).

What was measured:
[1] = tested on: Staphylococcus epidermitis; test: Bacterial growth inhibition screen in LB media (absorbance 595 nm), percent inhibition; details: for % Inhibition: S. epidermitis
[2] = target: T1, bacterial NAD synthetase enzyme (Bacillus subtilis, UniProt P08164); test: biochemical; type: biochemical
T1 sequence (P08164 2-272 limits assumed): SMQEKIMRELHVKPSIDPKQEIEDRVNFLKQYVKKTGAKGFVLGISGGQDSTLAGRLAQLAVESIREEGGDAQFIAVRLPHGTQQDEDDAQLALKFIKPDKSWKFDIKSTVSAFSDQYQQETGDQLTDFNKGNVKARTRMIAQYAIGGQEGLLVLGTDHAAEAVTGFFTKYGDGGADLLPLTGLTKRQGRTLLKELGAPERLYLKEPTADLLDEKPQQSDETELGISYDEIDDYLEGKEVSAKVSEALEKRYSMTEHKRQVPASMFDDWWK

[3] = compound at 0.2 mM (Table 312A)

Structure (SMILES)	% Inhibition ([1]; concentration screened 10 uM) [%]	% Inhibition [2, 3] [%]	% Inhibition ([1]; concentration screened 100 uM) [%]	also measured
c1ccc(Oc2ccc3[nH]c(CCCCC[n+]4cccc5ccccc54)cc3c2)cc1 [Compound 458]	22.77	15.72		
COC(=O)C=Cc1cn(CCCCCCC[n+]2cccc(C(=O)OC)c2)c2ccccc12 [Compound 269]	46.12			% Inhibition ([2]; compound at 0.1 mM (Table 314)): 51.12%
c1ccc(-c2ccc3[nH]c(CCC[n+]4cccc5ccccc54)cc3c2)cc1 [Compound 432]	8.91	13.21		
COc1ccc2c(ccn2CCCCOC(=O)Cc2ccc([N+](C)(C)C)cc2)c1 [Compound 740]	5.17	7.23		
CC(=O)c1ccc2[nH]c(CCCCOC(=O)c3ccc(N(C)C)cc3)cc2c1 [Compound 636]		17.36	6.72	
FC(F)(F)c1ccc2cc(CCCCC[n+]3ccc4ccccc4c3)[nH]c2c1 [Compound 506]		21.74	98.64	
Fc1ccc2[nH]c(CCCCCCC[n+]3ccc4ccccc4c3)cc2c1 [Compound 562]	9.44	46.44		
CC(C)c1ccc2[nH]c(CCCCOC(=O)c3ccccc3-c3ccccc3)cc2c1 [Compound 630]		10.72	13.69	
C[n+]1cccc(C(=O)OCCCCn2ccc3cc(OCc4ccccc4)ccc32)c1 [Compound 765]				inhibition of growth at 10 µM ([1]; Staphylococcus, read-out: % Inhibition, S. epidermitis, concentration screened 10 uM): 9.31%; inhibition at 100 µM [2]: 90%; IC50 ([2]; lead compounds (Table 318A), read-out: IC 50): 90 µM
CC(C)c1ccc2[nH]c(CCCCCC[n+]3cccc4ccccc43)cc2c1 [Compound 429]	3.06	13.01		
O=C(c1ccccc1)c1ccc2[nH]c(CCCCCCCC[n+]3ccccc3)cc2c1 [Compound 359]		35.55	1.01	
Fc1ccc2[nH]c(CCC[n+]3ccccc3)cc2c1 [Compound 342]	14.97	11.92		
c1ccc2c[n+](CCCCCCCCc3cc4ccccc4[nH]3)ccc2c1 [Compound 503]	7.82	37.04		
O=C(c1ccccc1)c1ccc2[nH]c(CCCC[n+]3ccccc3)cc2c1 [Compound 355]	5.78	2.08		% Inhibition ([2]; compound at 0.1 mM (Table 314)): 3.31%
Cc1ccc2[nH]c(CCCCCC[n+]3ccc4ccccc4c3)cc2c1 [Compound 513]		23.66	17.86	
c1ccc(C(c2ccccc2)(c2ccccc2)c2ccc3[nH]c(CCCCC[n+]4ccccc4)cc3c2)cc1 [Compound 338]	1.67			% Inhibition ([2]; compound at 0.1 mM (Table 314)): 27.28%
O=[N+]([O-])c1ccc2[nH]c(CCCCCC[n+]3ccccc3)cc2c1 [Compound 333]			100.00	% Inhibition ([2]; compound at 0.1 mM (Table 314)): 26.29%
CC(C)c1ccc2[nH]c(CCCCOC(=O)C(c3ccccc3)c3ccccc3)cc2c1 [Compound 663]		15.43	44.28	
CC(C)c1ccc2[nH]c(CCCCCC[n+]3ccc4ccccc4c3)cc2c1 [Compound 537]	5.43	10.69		
O=[N+]([O-])c1ccc2[nH]c(CCCCCCC[n+]3ccc4ccccc4c3)cc2c1 [Compound 550]	4.40	28.18		
CC(=O)c1ccc2[nH]c(CCCCCC[n+]3ccccc3)cc2c1 [Compound 369]		35.33	100.00	
CC(=O)c1ccc2[nH]c(CCCCOC(=O)c3cccnc3)cc2c1 [Compound 672]	1.57	2.63		
FC(F)(F)c1ccc2[nH]c(CCCCCCC[n+]3ccccc3)cc2c1 [Compound 364]	2.16	29.20		

Structure (SMILES)	% Inhibition ([1]; concentration screened 10 uM) [%]	% Inhibition [2, 3] [%]	% Inhibition ([1]; concentration screened 100 uM) [%]	also measured
CCCCc1ccc2[nH]c(CCCC[n+]3ccc4ccccc4c3)cc2c1 [Compound 529]	10.15	15.50		
c1ccc(-c2ccc3[nH]c(CCCCCCCC[n+]4ccc5ccccc5c4)cc3c2)cc1 [Compound 545]	15.39	32.18		
COc1ccc2[nH]c(CCCCCCCC[n+]3ccc4ccccc4c3)cc2c1 [Compound 593]		60.19	100.00	
c1ccc(C(c2ccccc2)(c2ccccc2)c2ccc3[nH]c(CCCCCCCC[n+]4cccc5ccccc54)cc3c2)cc1 [Compound 449]	7.73	8.67		
COC(=O)c1ccc2c(ccn2CCCCCCCCC[n+]2ccccc2)c1 [Compound 166]	21.66	87.68		
O=C(O)c1ccc2[nH]c(CCCCCCCC[n+]3ccc4ccccc4c3)cc2c1 [Compound 605]		68.65	44.29	
Fc1cc(F)c2[nH]c(CCCCCC[n+]3ccc4ccccc4c3)cc2c1 [Compound 519]	11.35	16.27		
O=C(c1ccccc1)c1ccc2[nH]c(CCCCCC[n+]3cccc4ccccc43)cc2c1 [Compound 465]	8.08	7.92		
CCCCc1ccc2[nH]c(CCCCC[n+]3ccc4ccccc4c3)cc2c1 [Compound 530]		20.52	27.36	
O=[N+]([O-])c1ccc2[nH]c(CCCCC[n+]3cccc4ccccc43)cc2c1 [Compound 440]	8.77	12.69		
O=[N+]([O-])c1ccc2[nH]c(CCCCCC[n+]3ccc4ccccc4c3)cc2c1 [Compound 549]	3.13	14.08		
c1ccc2[nH]c(CCCCC[n+]3cccc4ccccc43)cc2c1 [Compound 392]	9.61	10.89		
FC(F)(F)c1ccc2[nH]c(CCCCC[n+]3ccc4ccccc4c3)cc2c1 [Compound 578]		30.96	97.79	
Fc1ccc2[nH]c(CCCCCCCC[n+]3cccc4ccccc43)cc2c1 [Compound 455]	6.55	2.69		
Fc1ccc2[nH]c(CCC[n+]3cccc4ccccc43)cc2c1 [Compound 450]	7.45	7.90		
CN(C)c1ccc(C(=O)OCCCCCCCCc2cc3cc(C(F)(F)F)ccc3[nH]2)cc1 [Compound 611]		15.13	9.67	
CCCCc1ccc2[nH]c(CCC[n+]3ccccc3)cc2c1 [Compound 312]	4.60			% Inhibition ([2]; compound at 0.1 mM (Table 314)): 10.25%
Fc1cc(F)c2[nH]c(CCCCCC[n+]3ccccc3)cc2c1 [Compound 303]		50.56	100.00	
CC(C)c1ccc2[nH]c(CCC[n+]3cccc4ccccc43)cc2c1 [Compound 426]	16.57			% Inhibition ([2]; compound at 0.1 mM (Table 314)): 5.49%
CC(C)c1ccc2[nH]c(CCCCC[n+]3cccc4ccccc43)cc2c1 [Compound 428]	5.85	26.53		
O=C(c1ccccc1)c1ccc2[nH]c(CCCCOC(=O)c3ccccc3-c3ccccc3)cc2c1 [Compound 648]		5.82	14.57	
COc1ccc2c(ccn2CCCCCCOC(=O)Cc2ccc([N+](C)(C)C)cc2)c1 [Compound 742]	2.13	28.20		
O=[N+]([O-])c1ccc2c(ccn2CCCCCCO)c1 [Compound 862, 6-[N-(5-nitroindolyl)]hexan-1-ol]	48.29	9.05		
